Measurements: the NIST ThermoML archive (doi:10.1016/j.fluid.2007.01.043)
Numbers after ± are expanded uncertainties.

Test: cn = amount concentration of the nth substance listed, in mol/dm3
Settings: 308 K, Liquid; for mass density: 101 kPa; for viscosity: 101.3 kPa

**Q.** With `[Cl][Ni][Cl]` [nickel chloride (NiCl2)] + O as the compound, how does the mass density (c1 = 0.06) read?
**A.** 994.09 ± 0.7 kg/m3

**Q.** What about the mass density (c1 = 0.1) of the same compound?
**A.** 1004 ± 0.7 kg/m3

**Q.** What about the viscosity (c1 = 0.06) of the same compound?
**A.** 0.7261 ± 0.019 mPa·s

**Q.** What about the viscosity (c1 = 0.1) of the same compound?
**A.** 0.7469 ± 0.019 mPa·s

**Q.** Which results are given for `O=[N+]([O-])[O-].O=[N+]([O-])[O-].[Cu+2]` [copper dinitrate] + O?
**A.** mass density (c1 = 0.06): 1002.3 ± 0.8 kg/m3; mass density (c1 = 0.1): 1008.6 ± 0.8 kg/m3; viscosity (c1 = 0.06): 0.7347 ± 0.019 mPa·s; viscosity (c1 = 0.1): 0.7487 ± 0.02 mPa·s
